A value given as a limit tells only on which side of the number the result lay.

The IC50 is the concentration at which inhibition is half-maximal.

The target of assay [1] is T1, His tagged full-length PTP1B protein (Homo sapiens, UniProt P18031).
T1 construct: made in house
T1 sequence (P18031 with tags, fused parts or gaps): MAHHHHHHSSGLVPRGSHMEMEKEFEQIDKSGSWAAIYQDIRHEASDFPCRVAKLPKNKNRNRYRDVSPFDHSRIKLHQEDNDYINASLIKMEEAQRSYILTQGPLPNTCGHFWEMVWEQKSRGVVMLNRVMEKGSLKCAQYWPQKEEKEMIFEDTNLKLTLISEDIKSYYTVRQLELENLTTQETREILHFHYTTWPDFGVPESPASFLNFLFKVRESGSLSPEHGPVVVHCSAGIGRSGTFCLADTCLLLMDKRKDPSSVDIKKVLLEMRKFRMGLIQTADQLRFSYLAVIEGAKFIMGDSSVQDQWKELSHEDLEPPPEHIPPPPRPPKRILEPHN
Put plainly: Mobility Shift Assay (MSA) used to determine potency of PTP1B inhibitors. In kind it is biochemical. The following applies: Table 2. How it is done:
The enzymatic assay used to determine activity is a mobility shift assay using a LabChip EZ Reader by Caliper Life Sciences. The enzymatic reaction was carried out in assay buffer (50 mM HEPES pH 7.5, 1 mM EGTA, 10 mM EDTA, 0.01% Tween® 20, and 2 mM DTT). […] The enzyme (at 0.5 nM) was incubated with compound for 10 minutes at room temperature. […] The % inhibition was then used to calculate the IC50 values.

Assay [2] deals with T2, His tagged PTPN2 (TC45) protein (Homo sapiens, UniProt P17706).
T2 construct: made in house
T2 sequence (P17706 with tags, fused parts or gaps isoform P17706-2): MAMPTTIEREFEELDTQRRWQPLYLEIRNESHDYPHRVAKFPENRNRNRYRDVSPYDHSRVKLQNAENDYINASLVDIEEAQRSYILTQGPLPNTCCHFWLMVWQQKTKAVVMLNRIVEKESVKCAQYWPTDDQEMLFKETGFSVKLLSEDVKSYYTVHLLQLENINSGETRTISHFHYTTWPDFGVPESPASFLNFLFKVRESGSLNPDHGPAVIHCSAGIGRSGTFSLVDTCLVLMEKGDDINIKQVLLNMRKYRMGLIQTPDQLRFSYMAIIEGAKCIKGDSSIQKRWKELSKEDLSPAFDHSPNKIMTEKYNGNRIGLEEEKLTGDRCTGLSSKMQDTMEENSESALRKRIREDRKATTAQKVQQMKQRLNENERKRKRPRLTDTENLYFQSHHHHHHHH
Put plainly: Mobility Shift Assay used to determine potency of PTPN2 inhibitors. The format is biochemical. The following applies: Table 2; read-out: PTPN2 MSA IC50. The procedure:
Example 292: Mobility Shift Assay used to determine potency of PTPN2 inhibitors
Compound activity was determined using in house His tagged PTPN2 (TC45) protein (SEQ ID NO: 1) in an in vitro enzymatic reaction. The enzymatic assay used to determine activity was a mobility shift assay using a LabChip EZ Reader by Caliper Life Sciences. The enzymatic reaction was carried out in assay buffer (50 mM HEPES pH 7.5, 1 mM EGTA, 10 mM EDTA, 0.01% Tween® 20, and 2 mM DTT). The compounds were dispensed on a white 384 well ProxiPlate™ (PerkinElmer Catalog#6008289) plate using the Labcyte Echo at varying concentrations (12 point, 1:3 dilution). The enzyme (at 0.5 nM) was incubated with compound for 10 minutes at room temperature. Then the substrate (phosphorylated insulin receptor probe sequence: ((OG488)—{NH—CH2—CH2—O—CH2—CH2—O—CH2—CO)—T—R—D—I—(PY)—E—T—D—Y—Y—R—K—K—NH2) (SEQ ID NO: 2) was added at 2 μM to the plates and incubated for another 10 minutes at room temperature. Finally, a quench solution (water and 4-bromo-3-(2-oxo-2-propoxyethoxy)-5-(3-{[1-(phenylmethanesulfonyl)piperidin-4-yl]amino}phenyl)thiophene-2-carboxylic acid) was added to the plates, which were then run on the EZ Reader (excitation 488 nm, emission 530 nm) to measure % conversion (the amount of phosphorylated substrate which was de-phosphorylated by PTPN2). […] The % inhibition was then used to calculate the IC50 values.

Consider `O=C1CN(c2c(O)cc3ccc(C4=CCN(S(=O)(=O)CCCO)C4)cc3c2F)S(=O)(=O)N1` [Compound 369, 5-{1-fluoro-3-hydroxy-7-[1-(3-hydroxypropane-1-sulfonyl)-2,5-dihydro-1H-pyrrol-3-yl]naphthalen-2-yl}-1λ^6,2,5-thiadiazolidine-1,1,3-trione], for which the 50% inhibitory concentration (IC50) in assay [1] and in assay [2] was less than 1 nM each time.

On to `C[C@](O)(CC#N)CCOc1ccc2cc(O)c(N3CC(=O)NS3(=O)=O)c(F)c2c1` [Compound 347, (3S)-5-{[8-fluoro-6-hydroxy-7-(1,1,4-trioxo-1λ^6,2,5-thiadiazolidin-2-yl)naphthalen-2-yl]oxy}-3-hydroxy-3-methylpentanenitrile], for which the IC50 is 1 to 10 nM in assay [1] and less than 1 nM in assay [2].

For `O=C1CN(c2c(O)cc3cc(O)c(OCCC4CC4)cc3c2F)S(=O)(=O)N1` [Compound 356, 5-[7-(2-cyclopropylethoxy)-1-fluoro-3,6-dihydroxynaphthalen-2-yl]-1λ^6,2,5-thiadiazolidine-1,1,3-trione], the IC50 in assay [1] and in assay [2] was less than 1 nM each time.

Take `CC(C)(O)CCOc1ccc2c(F)c(N3CC(=O)NS3(=O)=O)c(O)cc2c1` [Compound 334, 5-[1-fluoro-3-hydroxy-6-(3-hydroxy-3-methylbutoxy)naphthalen-2-yl]-1λ^6,2,5-thiadiazolidine-1,1,3-trione]: the IC50 in assay [1] was more than 100 nM; in assay [2], 10 to 100 nM.

As for `COc1cc2c(F)c(N3CC(=O)NS3(=O)=O)c(O)cc2cc1O` [Compound 357, 5-(1-fluoro-3,6-dihydroxy-7-methoxynaphthalen-2-yl)-1λ^6,2,5-thiadiazolidine-1,1,3-trione], the IC50 in assay [1] and in assay [2] was 1 to 10 nM in each case.

With `O=C1CN(c2c(O)cc3cc(OCC4CC4)ccc3c2F)S(=O)(=O)N1` [Compound 338, 5-[6-(cyclopropylmethoxy)-1-fluoro-3-hydroxynaphthalen-2-yl]-1λ^6,2,5-thiadiazolidine-1,1,3-trione], the IC50 in assay [1] and in assay [2] was 10 to 100 nM in each case.

Take `Nc1ccc2c(F)c(N3CC(=O)NS3(=O)=O)c(O)cc2c1` [Compound 329, 5-(6-amino-1-fluoro-3-hydroxynaphthalen-2-yl)-1λ^6,2,5-thiadiazolidine-1,1,3-trione]: the results for the IC50 in assay [1] and in assay [2] were 10 to 100 nM and 1 to 10 nM, respectively.

Regarding `CC(C)CCOc1ccc2c(F)c(N3CC(=O)NS3(=O)=O)c(O)cc2c1` [Compound 339, 5-[1-fluoro-3-hydroxy-6-(3-methylbutoxy)naphthalen-2-yl]-1λ^6,2,5-thiadiazolidine-1,1,3-trione], the IC50 in assay [1] and in assay [2] was 10 to 100 nM each time.

For `C[C@@H](O)C[C@@H](O)COc1ccc2cc(O)c(N3CC(=O)NS3(=O)=O)c(F)c2c1` (racemic) [Compound 325, 5-(7-{[rac-(2R,4R)-2,4-dihydroxypentyl]oxy}-1-fluoro-3-hydroxynaphthalen-2-yl)-1λ^6,2,5-thiadiazolidine-1,1,3-trione], the 50% inhibitory concentration (IC50) in assay [1] and in assay [2] was 1 to 10 nM throughout.

Turning to `O=C1CN(c2c(O)cc3ccc(OCCC4CCOC4)cc3c2F)S(=O)(=O)N1` (stereo not shown) [Compound 350, 5-{1-fluoro-3-hydroxy-7-[2-(oxolan-3-yl)ethoxy]naphthalen-2-yl}-1λ^6,2,5-thiadiazolidine-1,1,3-trione], the IC50 in assay [1] and in assay [2] was less than 1 nM throughout.

With `CC(C)(C)CCOc1cc2c(F)c(N3CC(=O)NS3(=O)=O)c(O)cc2cc1O` [Compound 359, 5-[7-(3,3-dimethylbutoxy)-1-fluoro-3,6-dihydroxynaphthalen-2-yl]-1λ^6,2,5-thiadiazolidine-1,1,3-trione], the IC50 in assay [1] and in assay [2] was less than 1 nM in each case.

Consider `O=C1CN(c2c(O)cc3cc(O)ccc3c2F)S(=O)(=O)N1` [Compound 328, 5-(1-fluoro-3,6-dihydroxynaphthalen-2-yl)-1λ^6,2,5-thiadiazolidine-1,1,3-trione], for which the concentration for half-maximal inhibition (IC50) is 1 to 10 nM in assay [1] and less than 1 nM in assay [2].

Consider `N#CC1(COc2ccc3cc(O)c(N4CC(=O)NS4(=O)=O)c(F)c3c2)CC1` [Compound 199, 1-({[8-fluoro-6-hydroxy-7-(1,1,4-trioxo-1λ^6,2,5-thiadiazolidin-2-yl)naphthalen-2-yl]oxy}methyl)cyclopropane-1-carbonitrile], for which the results for the IC50 in assay [1] and in assay [2] were more than 100 nM and 1 to 10 nM, respectively.

For `CC(C)NCCCc1ccc2cc(O)c(N3CC(=O)NS3(=O)=O)c(F)c2c1` [Compound 349, 5-(1-fluoro-3-hydroxy-7-{3-[(propan-2-yl)amino]propyl}naphthalen-2-yl)-1λ^6,2,5-thiadiazolidine-1,1,3-trione], the IC50 in assay [1] and in assay [2] was 1 to 10 nM throughout.

As to `COc1ccc2c(F)c(N3CC(=O)NS3(=O)=O)c(O)cc2c1` [Compound 335, 5-(1-fluoro-3-hydroxy-6-methoxynaphthalen-2-yl)-11λ^6,2,5-thiadiazolidine-1,1,3-trione], the concentration for half-maximal inhibition (IC50) in assay [1] and in assay [2] was 10 to 100 nM throughout.

Take `CC(O)(CO)CCOc1ccc2cc(O)c(N3CC(=O)NS3(=O)=O)c(F)c2c1` (stereo not shown) [Compound 323, 5-[7-(3,4-dihydroxy-3-methylbutoxy)-1-fluoro-3-hydroxynaphthalen-2-yl]-1λ^6,2,5-thiadiazolidine-1,1,3-trione]: the IC50 in assay [1] and in assay [2] was less than 1 nM each time.

Consider `CC(C)(C#N)CCOc1cc2c(F)c(N3CC(=O)NS3(=O)=O)c(O)cc2cc1O` [Compound 366, 4-{[8-fluoro-3,6-dihydroxy-7-(1,1,4-trioxo-1λ^6,2,5-thiadiazolidin-2-yl)naphthalen-2-yl]oxy}-2,2-dimethylbutanenitrile], for which the IC50 in assay [1] and in assay [2] was less than 1 nM each time.

As for `O=C1CN(c2c(O)cc3cc(O)c(OCCCC(F)F)cc3c2F)S(=O)(=O)N1` [Compound 365, 5-[7-(4,4-difluorobutoxy)-1-fluoro-3,6-dihydroxynaphthalen-2-yl]-1λ^6,2,5-thiadiazolidine-1,1,3-trione], the IC50 in assay [1] and in assay [2] was less than 1 nM each time.

Regarding `CC(C)(O)CCOc1cc2c(F)c(N3CC(=O)NS3(=O)=O)c(O)cc2cc1O` [Compound 355, 5-[1-fluoro-3,6-dihydroxy-7-(3-hydroxy-3-methylbutoxy)naphthalen-2-yl]-1λ^6,2,5-thiadiazolidine-1,1,3-trione], the IC50 in assay [1] and in assay [2] was less than 1 nM in each case.

Take `O=C1CN(c2c(O)cc3cc(O)c(Br)cc3c2F)S(=O)(=O)N1` [Compound 370, 5-(7-bromo-1-fluoro-3,6-dihydroxynaphthalen-2-yl)-1λ^6,2,5-thiadiazolidine-1,1,3-trione]: the IC50 in assay [1] and in assay [2] was 1 to 10 nM in each case.

Take `CC(C)CCOc1cc2c(F)c(N3CC(=O)NS3(=O)=O)c(O)cc2cc1O` [Compound 361, 5-[1-fluoro-3,6-dihydroxy-7-(3-methylbutoxy)naphthalen-2-yl]-1λ^6,2,5-thiadiazolidine-1,1,3-trione]: the IC50 in assay [1] and in assay [2] was less than 1 nM each time.

For the compound `O=C1CN(c2c(O)cc3cc(NCC4CC4)ccc3c2F)S(=O)(=O)N1` [Compound 331, 5-{6-[(cyclopropylmethyl)amino]-1-fluoro-3-hydroxynaphthalen-2-yl}-1λ^6,2,5-thiadiazolidine-1,1,3-trione], the IC50 in assay [1] and in assay [2] was 10 to 100 nM each time.

With `CC(C)(CCN)CCOc1ccc2cc(O)c(N3CC(=O)NS3(=O)=O)c(F)c2c1` [Compound 348, 5-{7-[(5-amino-3,3-dimethylpentyl)oxy]-1-fluoro-3-hydroxynaphthalen-2-yl}-1λ^6,2,5-thiadiazolidine-1,1,3-trione], the IC50 in assay [1] and in assay [2] was less than 1 nM throughout.

(Values after US20230019236A1, “PROTEIN TYROSINE PHOSPHATASE INHIBITORS AND METHODS OF USE THEREOF” (Calico Life Sciences LLC, priority 2019, published 2023).)
